In data set [1] the test system is SARS-CoV-2. The note with it: Gassen et al. (2020); read-out: IC50 against SARS-CoV-2; cited from earlier work.
For data set [2], the system named is SARS-CoV-2. The data set is described as follows: microbe, parasite or virus in culture. The format is cell-based. The note with it: Severe acute respiratory syndrome coronavirus 2; Gassen et al. (2020); read-out: IC50 against SARS-CoV-2.
The subject of data set [3] is SARS-CoV-2. Put plainly: Anti-SARS-CoV-2 efficacy in Vero cells (Jeon et al. 2020). To be noted: Severe acute respiratory syndrome coronavirus 2, Vero; for IC90: read-out: IC90 against SARS-CoV-2. The format is cell-based.
For data set [4] the following is noted: rats, single oral dose 5 mg/kg, dissolved in DMSO/cremophor EL/water 3/15/82; cited from earlier work.
The next data set deals with T1, TMEM16F/Anoctamin6 (Homo sapiens, UniProt Q4KMQ2).
T1 sequence (Q4KMQ2 1-910): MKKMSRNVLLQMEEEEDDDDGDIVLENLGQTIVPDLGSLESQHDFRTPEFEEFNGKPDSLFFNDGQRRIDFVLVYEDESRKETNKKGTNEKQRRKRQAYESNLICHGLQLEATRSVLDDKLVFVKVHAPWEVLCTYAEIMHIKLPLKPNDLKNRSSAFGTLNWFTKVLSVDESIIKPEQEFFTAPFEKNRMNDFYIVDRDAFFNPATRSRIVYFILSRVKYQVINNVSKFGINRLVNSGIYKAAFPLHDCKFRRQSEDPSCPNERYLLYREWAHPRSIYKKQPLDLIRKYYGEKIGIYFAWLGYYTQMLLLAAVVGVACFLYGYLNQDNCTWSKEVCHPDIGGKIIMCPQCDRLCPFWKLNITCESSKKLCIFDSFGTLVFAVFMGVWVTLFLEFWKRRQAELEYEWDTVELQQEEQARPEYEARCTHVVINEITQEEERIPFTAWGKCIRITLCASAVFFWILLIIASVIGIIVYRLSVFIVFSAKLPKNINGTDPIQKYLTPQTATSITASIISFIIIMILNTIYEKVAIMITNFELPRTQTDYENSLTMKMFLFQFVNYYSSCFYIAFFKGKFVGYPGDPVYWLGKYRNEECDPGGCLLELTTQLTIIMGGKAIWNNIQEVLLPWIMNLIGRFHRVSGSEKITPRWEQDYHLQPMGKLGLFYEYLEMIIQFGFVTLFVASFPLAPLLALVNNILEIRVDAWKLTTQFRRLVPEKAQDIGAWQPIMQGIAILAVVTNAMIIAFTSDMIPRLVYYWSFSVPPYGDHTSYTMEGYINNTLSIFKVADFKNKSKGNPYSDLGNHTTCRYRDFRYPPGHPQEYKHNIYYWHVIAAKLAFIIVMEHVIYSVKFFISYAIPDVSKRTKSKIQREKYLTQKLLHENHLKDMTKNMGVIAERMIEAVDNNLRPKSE
To be noted: Spike-expressing cells; cited from earlier work.

For data set [5] the following is noted: cited from earlier work.
The conditions of data set [6]: cited from earlier work. This is another data set of the same source.
For data set [7], the system named is prostate cancer cell (PC-3). The data set is described as follows: Inhibitory efficacy against prostate cancer cell PC-3. The format is cell-based. The note with it: estimated from dose-efficacy curve, FIG. 7.
The conditions of data set [8]: phosphate buffer, depending on temperature of measurement; cited from earlier work.
The nature of data set [9]: Solubilization and dispersion of niclosamide by OHPP. To be noted: 2.5 mg/mL niclosamide in phosphate buffer.

Converted amounts (≈) assume the structure as drawn. Like-named read-outs stand apart in the source and are kept apart here.

We go through one compound from patent US20230293573A1 (priority 2020, published 2023).

As a reminder, the IC50 is the concentration that gives 50% inhibition. The term IC90 denotes the point of the concentration-response curve where the effect stands at 90%. As a reminder, the solubility is the dissolved amount per volume that the medium holds.

For the compound `O=C(Nc1ccc([N+](=O)[O-])cc1Cl)c1cc(Cl)ccc1O` [niclosamide, 2′,5-Dichloro-4′-nitrosalicylanilide], the IC50 with SARS-CoV-2 [1] is 170 nM; in the data set on SARS-CoV-2 [2], 0.056 µg/mL (≈ 0.171 µM); in the data set on SARS-CoV-2 [3] (read-out: IC50 against SARS-CoV-2) it was 0.092 µg/mL (≈ 0.281 µM); in data set [7] it was 5.93 µg/mL (≈ 18.1 µM). Besides, the IC90 was roughly 700 nM in the data set with SARS-CoV-2 [3] (read from FIG. 2 (Jeon et al. 2020)) and roughly 0.229 µg/mL with SARS-CoV-2 [3]. For the same compound, the “highest plasma concentration (Cmax)” value in data set [4] was 354 ± 152 ng/mL. The “effect on calcium oscillations and membrane conductances through TMEM16F” value at TMEM16F/Anoctamin6 was “markedly blunted calcium oscillations and membrane conductances”. Besides, the BCS solubility entry in data set [5] is reported as “low solubility”. The solubility definition entry in [5] (delMoral-Sanchez et al., 2019) is on record as “practically insoluble”. Besides, in data set [6] (500 mg TID), the maximal plasma concentration is 35.7 to 182 ng/mL. Further, the side effects result in data set [6] (500 or 1000 mg TID oral, 4 weeks) is “mostly associated with the GI tract”. In data set [6] (500 or 1000 mg TID, 4 weeks), the “maximal plasma concentration, highest level reached” value is reported as 182 ng/mL. In addition, the solubility in data set [8] was 0.3 to 1.14 µg/mL. Moreover, the appearance of dispersion result in data set [9] was “did not dissolve and showed heavy clouds and precipitates”.
